Measurements from patent US12510533B2, “Methods for treating multiple myeloma and the use of companion biomarkers for 4-(4-(4-(((2-(2,6-dioxopiperidin-3-yl)-1-oxoisoindolin-4-yl)oxy)methyl)benzyl)piperazin-1-yl)-3-fluorobenzonitrile” (Celgene Corporation, priority 2018, dated 2025).

Legend:
K562 cells = assay: Killing of untreated K562 cells by IL-2-activated PBMCs treated with compound (co-culture, Annexin V/PI); assay type: cell-based; details: Homo sapiens, IL-2-activated PBMCs treated 72 hours, read-out: IC50, direct K562 cell killing by treated PBMCs
Description: Freshly isolated human PBMCs were cultured with recombinant IL-2 at concentration of 20 units/mL for 72 hours. Peripheral blood mononuclear cells were then spun down and re-suspended in fresh RPMI complete medium to 2×10^6 cells/mL. Cells were then treated with DMSO or Compound 2 at the indicated concentrations and incubated for an additional 72 hours. The PBMCs were then washed twice in fresh RPMI complete medium prior to coculture. K562 cells were re-suspended to a cell density of 1×10^6 cells/mL and stained with 1 μM CellTrace CFSE according to manufacturer's instructions. The labeled K562 cells were then seeded into a 96-well round bottom plate at 1×10^5 cells/well. […] Specific target cell lysis by PBMC mediated apoptosis was measured using Annexin V-fluorescein isothiocyanate (FITC) and propidium iodide (PI) according to manufacturer's instructions and samples were run on the FACS Array scan. […] All myeloma cell lines were kept in log phase, and cell density and viability were monitored by trypan blue exclusion using the Vi-CELL XR cell viability analyzer. […] Frozen PBMC donors, were thawed at 37° C. for 2 minutes in RPMI medium with 10% FBS and cell counts and viability were measured on the Vi-CELL® (Beckman Coulter). […] Peripheral blood mononuclear cells were counted and added to the MM cells at a target:effector (T:E) ratio of 1:5. […]

[1] = test system: H929-1051 and OPM2-P10 cells; assay: Apoptosis induction in H929-1051 and OPM2-P10 multiple myeloma cells; assay type: cell-based, human; details: 15 minute or 6 hour transient exposure
Description: FIG. 10 illustrates that continuous, but not transient, exposure to Compound 2 induced apoptosis in multiple myeloma cells. Apoptosis induction by Compound 2 treatment in a lenalidomide-resistant MM cell model (H929-1051 [top row] and a pomalidomide-resistant MM cell model OPM2-P10 [bottom row]) is presented.
The effect of Aiolos and Ikaros degradation on induction of apoptosis was also evaluated. The nearly complete and prolonged substrate suppression observed upon continuous exposure of Compound 2 coincided with apoptosis induction in MM cells (FIG. 10). A continuous single exposure to 0.01 and 0.1 μM Compound 2 led to induction of apoptosis in H929-1051 and OPM2-P10 cells (within 50 to 75 hours) (FIG. 10).

Ikaros = Ikaros (Homo sapiens, UniProt Q13422+Q96SW2); assay: Ikaros level by flow cytometry in ex vivo cultures of healthy donor bone marrow CD34+ cells (neutrophil maturation); assay type: cell-based; parameters: The effects of Compound 2 on the degradation of Ikaros in CD4+ and CD8+ T cells; endogenous in cells; host or cells: CD4+ and CD8+ T cells of healthy donors; CD34+ bone marrow cells of healthy donors; CD3+ T cells of multiple myeloma patients
Sequence of Ikaros (Q13422 whole entry): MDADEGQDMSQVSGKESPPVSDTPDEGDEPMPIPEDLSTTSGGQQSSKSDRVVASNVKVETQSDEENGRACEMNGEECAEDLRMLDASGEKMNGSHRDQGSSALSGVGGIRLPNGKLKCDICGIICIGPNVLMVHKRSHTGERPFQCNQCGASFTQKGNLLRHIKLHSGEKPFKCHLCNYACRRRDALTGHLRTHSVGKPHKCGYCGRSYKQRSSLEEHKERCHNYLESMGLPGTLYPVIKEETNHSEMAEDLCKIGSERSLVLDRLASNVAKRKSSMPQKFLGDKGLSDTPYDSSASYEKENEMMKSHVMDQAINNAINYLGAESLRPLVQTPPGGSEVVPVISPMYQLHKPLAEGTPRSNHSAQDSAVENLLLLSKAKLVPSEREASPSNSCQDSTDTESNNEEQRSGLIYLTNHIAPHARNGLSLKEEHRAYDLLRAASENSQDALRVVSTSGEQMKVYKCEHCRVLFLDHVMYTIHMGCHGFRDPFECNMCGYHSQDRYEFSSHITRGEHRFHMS
Sequence of Ikaros (Q16531 2-1140, further chain): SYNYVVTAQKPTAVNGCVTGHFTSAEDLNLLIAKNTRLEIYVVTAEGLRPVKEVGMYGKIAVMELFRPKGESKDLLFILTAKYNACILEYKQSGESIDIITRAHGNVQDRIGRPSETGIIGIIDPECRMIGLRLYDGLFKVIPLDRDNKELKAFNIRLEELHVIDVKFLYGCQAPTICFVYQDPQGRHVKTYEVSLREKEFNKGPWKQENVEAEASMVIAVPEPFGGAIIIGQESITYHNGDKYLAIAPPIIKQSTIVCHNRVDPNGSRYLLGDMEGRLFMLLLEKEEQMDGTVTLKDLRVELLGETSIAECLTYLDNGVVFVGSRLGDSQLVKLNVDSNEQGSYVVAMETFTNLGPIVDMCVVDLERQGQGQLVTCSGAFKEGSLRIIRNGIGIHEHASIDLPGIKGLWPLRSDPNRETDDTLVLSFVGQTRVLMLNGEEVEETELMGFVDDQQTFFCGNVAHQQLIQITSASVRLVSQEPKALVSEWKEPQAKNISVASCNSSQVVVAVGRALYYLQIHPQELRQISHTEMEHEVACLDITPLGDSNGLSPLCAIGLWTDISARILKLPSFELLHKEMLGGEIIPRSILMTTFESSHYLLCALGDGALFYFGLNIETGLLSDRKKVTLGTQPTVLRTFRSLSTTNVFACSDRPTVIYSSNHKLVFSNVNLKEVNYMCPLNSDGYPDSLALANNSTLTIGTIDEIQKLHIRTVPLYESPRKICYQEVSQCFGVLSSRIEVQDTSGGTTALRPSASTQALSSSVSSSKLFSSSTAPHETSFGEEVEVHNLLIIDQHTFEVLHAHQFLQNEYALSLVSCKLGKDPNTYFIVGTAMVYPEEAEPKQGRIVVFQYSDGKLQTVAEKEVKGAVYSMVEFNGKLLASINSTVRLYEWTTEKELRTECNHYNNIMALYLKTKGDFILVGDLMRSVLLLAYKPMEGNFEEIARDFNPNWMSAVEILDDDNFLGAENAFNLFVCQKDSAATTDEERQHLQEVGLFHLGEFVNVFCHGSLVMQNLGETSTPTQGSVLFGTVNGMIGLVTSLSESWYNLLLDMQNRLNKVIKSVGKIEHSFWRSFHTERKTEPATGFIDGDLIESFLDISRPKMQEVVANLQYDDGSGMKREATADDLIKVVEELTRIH
Sequence of Ikaros (Q96SW2 whole entry): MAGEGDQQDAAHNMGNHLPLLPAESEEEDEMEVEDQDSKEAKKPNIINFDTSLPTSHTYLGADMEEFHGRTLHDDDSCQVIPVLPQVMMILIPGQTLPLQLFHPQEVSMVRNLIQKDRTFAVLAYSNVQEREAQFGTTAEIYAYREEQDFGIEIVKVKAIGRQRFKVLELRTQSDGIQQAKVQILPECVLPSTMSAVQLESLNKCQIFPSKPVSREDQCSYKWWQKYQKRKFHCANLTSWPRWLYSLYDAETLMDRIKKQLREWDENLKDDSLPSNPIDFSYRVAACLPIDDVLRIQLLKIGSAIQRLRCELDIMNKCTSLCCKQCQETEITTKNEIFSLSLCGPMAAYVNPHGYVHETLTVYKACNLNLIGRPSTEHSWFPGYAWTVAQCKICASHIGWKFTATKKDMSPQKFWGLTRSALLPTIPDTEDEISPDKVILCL
Description: Ex vivo cultures of bone marrow (BM) CD34^+ cells from healthy donors (HD) were used to investigate the effect of Compound 2 on neutropenia. […] Therefore, we monitored the effects of Compound 2 on mature neutrophils.
Ikaros protein level was analyzed by flow cytometry after each exposure period, and also at Days 19, 21, and 23 corresponding to 3, 5, and 7 days following the last exposure, respectively. CD34^+ cells derived from healthy donor bone marrow were exposed to different concentrations of Compound 2 and different incubation schedules. The percentage of Ikaros content (normalized to the DMSO control) following Compound 2 exposure at concentrations of 1, 10, and 100 nM for 2, 4, and 6 hours on each of 1, 2, or 3 consecutive days starting on Day 14 were measured. At the end of the exposure period, Compound 2 was removed and cells were incubated in the absence of Compound 2 (recovery period). Ikaros was measured by flow cytometry after incubation with Compound 2 (Days 14 to 16) and during recovery on Days 19, 21, and 23. Ikaros levels were reduced during Compound 2 exposure and recovered following drug withdrawal in a concentration-dependent manner with no significant differences noted in association with different exposure schedules (FIG. 13). Ikaros levels began returning to normal after at least 3 days following washout, pre-dating full recovery of maturation of late-stage neutrophil precursors.
To further explore the role of Ikaros in relationship to the maturation of neutrophil progenitors, Ikaros protein levels were analyzed by flow cytometry after each exposure and every other day following the last exposure to Compound 2. […] After 3 days of exposure to Compound 2, the recovery of Ikaros began in a concentration-dependent manner just 24 hours after drug washout and returned to control levels after 10 days (FIG. 14; FIG. 16B). With 5 days of exposure to Compound 2, recovery of Ikaros started on Day 17, three days after drug washout (FIG. 15). […]

N#Cc1ccc(N2CCN(Cc3ccc(COc4cccc5c4CN([C@H]4CCC(=O)NC4=O)C5=O)cc3)CC2)c(F)c1 [Compound 2, (S)-4-(4-(4-(((2-(2,6-dioxopiperidin-3-yl)-1-oxoisoindolin-4-yl)oxy)methyl)benzyl)piperazin-1-yl)-3-fluorobenzonitrile]
IC50 (K562 cells): 5.9 pM
effect of transient exposure on apoptosis [1]: precluded the induction of apoptosis
time following washout at which Ikaros levels began returning to normal (Ikaros; 2, 4, 6 hour exposures on 1 to 3 consecutive days from Day 14): at least 3 days
time for Ikaros to return to control levels (Ikaros; 3 days of 6-hour exposures): 10 days
Ikaros degradation after one exposure (Ikaros; all concentrations (1, 10, 100 nM) and all exposure schedules): fully degraded
